Data set [1] can be described thus: Cytotoxic activity, Alamar Blue. Particulars: mouse, murine macrophages J774A.1, 24 h. It is filed as cell-based. As to the method:
Murine macrophages (J774A.1) ATCC TIB-67 were cultured in RPMI, supplemented with 10% FBS at 37 °C and 5 % CO2 atmosphere.
In a 96-well plate, macrophages (2 × 10^5 cells/mL) were added. After completing the adherence (2–4 h), macrophages were incubated with serial dilutions of compounds 1–5. […] The selectivity index (SI) was calculated as the ratio of CC50 and IC50 [38].

The subject of data set [2] is Leishmania amazonensis promastigotes. Put plainly: Alamar Blue assay against promastigotes. The data set is classed as cell-based. Particulars: L. amazonensis promastigotes. How it is done:
Leishmania amazonensis (MHOM/BR/77/LTB0016) promastigotes were cultured in RPMI 1640 medium (Gibco, Waltham, MA, USA), supplemented with 10 % FBS at 26 °C. Additionally, for maintenance, the promastigotes were cultured in SND medium (Sigma-Aldrich, Darmstadt, Germany) supplemented with 10 % FBS at 26 °C. Both media were supplemented with gentamicin at 10 µg/mL.
Compounds 1–5 were tested against promastigotes of Leishmania amazonensis using the colorimetric assay based on the Alamar Blue® reagent. In a 96-well plate, serial dilutions of the compounds and the promastigote form of the parasite (10^6 cells/mL) were added at a final volume of 200 µL.

Data set [3] concerns L. amazonensis intracellular amastigotes. Kind of data set: Alamar Blue assay against intracellular amastigotes in murine macrophages. As to conditions: Leishmania amazonensis, Macrophage; intracellular amastigotes of L. amazonensis. It is filed as cell-based. How it is done:
Briefly, in a 96-well plate, murine macrophages (2 × 10^5 cells/mL) were incubated in RPMI medium at 37 °C and 5 % CO2 atmosphere for 2–4 h. Promastigote forms of L. amazonensis (2 × 10^6 cells/mL) were added to reach a 1:10 macrophage:parasite ration, and after 24 h of incubation, the cells were washed to discard the not-introduced parasites. Serial dilutions of the compound were added in 100 µL of RPMI medium. Following 24 h of incubation, the plate was washed, and the cells were broken with SDS 0.05% for 30 s. Fresh medium was added, and 48 h later, 10% Alamar Blue® reagent was added.

Data set [4] has as its system L. amazonensis promastigotes. Put plainly: Plasma membrane permeability (SYTOX Green). It is filed as cell-based, Leishmania amazonensis. As to conditions: 24 h incubation with IC90. How it is done: (§1) After incubation for 24 h at 26 °C, samples were centrifuged (3000 rpm, 10 min, 4 °C) and resuspended in 50 µL of PBS buffer. Different events involved in parasite cell death were studied following the manufacturer’s instructions for each kit.
The SYTOX Green assay (Life Technologies, Madrid, Spain) was used to determine the damage in the plasma membrane permeability of treated cells. Parasites were incubated for 24 h with the compound and the stain was added and incubated for 15 min. […] Triton X-100, a well-known non-ionic surfactant, was added at 0.5% for 3 h before staining, as a positive control.

Data set [5] relates to Leishmania amazonensis promastigotes. Put plainly: ATP level analysis (CellTiter-Glo). It is filed as cell-based. Particulars: 24 h incubation with IC90, compared to untreated parasites. As to the method: as §1
ATP levels were measured using the CellTiter-Glo® Luminescent Cell Viability Assay kit (Promega, Fitchburg, WI, USA) and the EnSpire Multimode Plate Reader® (PerkinElmer, Waltham, MA, USA). After 24 h of incubation with laurequinone (1), the pellet was resuspended in the buffer and the kit. After 2 min of agitation and 10 min of incubation at room temperature in the dark, the luminescence was measured with the EnSpire Multimode Plate Reader®. The results were plotted against the negative control of untreated cells. Sodium azide (20 mM) was added as a positive control.

Data set [6] relates to L. amazonensis promastigotes. Put plainly: Chromatin condensation analysis (Hoechst 33342/PI). It is filed as cell-based, Leishmania amazonensis. Particulars: promastigotes treated with IC90, Hoechst/PI. How it is done:
as §1
The Invitrogen Chromatin Condensation/Dead Cell Apoptosis Kit, Hoechst 33342/propidium iodide (PI), was used to determine whether chromatin condensation was produced in the treated parasites. After adding the kit, the parasites were incubated for 30 min at 26 °C in the dark. The results were observed under the EVOS fluorescence microscope using DAPI (excitation 350 nm/emission 461 nm for Hoechst) and RFP (excitation 535 nm/emission 617 nm for PI) light cubes. The obtained images were divided into three types of results: low fluorescence of both stains when the cells were alive, intense fluorescence when the cell had condensed chromatin (programmed cell death), and intense red fluorescence when the cell had died.

Data set [7] concerns L. amazonensis promastigotes. Put plainly: Reactive oxygen species analysis (CellROX Deep Red). It is filed as cell-based, Leishmania amazonensis. As to conditions: 24 h incubation with IC90. As to the method: as §1
Oxidative stress is the result of an imbalance between the production of reactive oxygen species (ROS) and the cells’ ability to remove them. The CellROX® Deep Red Reagent (ThermoFisher Scientific, Waltham, MA, USA) was used to measure the oxidative stress. […] Treated parasites were incubated and resuspended in the buffer, the kit was added, and the plate was incubated for 30 min at 26 °C in the dark. Oxidative stress is represented as red fluorescence in the images obtained with the Cy5 light cube (excitation 644 nm/emission 665 nm) of the EVOS® FL Cell Imaging System (ThermoFisher Scientific, Waltham, MA, USA). Untreated parasites were used as a negative control, and hydrogen peroxide (600 mM) was used as a positive control.

For data set [8], the system named is L. amazonensis promastigotes. Kind of data set: Phosphatidylserine externalization (annexin V/PI, TALI cytometer). It is filed as cell-based, Leishmania amazonensis. Particulars: 24 h incubation with IC90. As to the method:
as §1
A double-staining assay with annexin V/propidium iodide (PI) was performed using the Tali® Apoptosis Kit–Annexin V Alexa Fluor® 488 (Invitrogen^TM, Waltham, MA, USA). Briefly, after incubating the treated parasites for 24 h, they were washed with the buffer and incubated with annexin V for 20 min. Promastigotes were centrifuged and resuspended in buffer containing PI and incubated for 3 min. Finally, the stained cells were loaded into a slide and inserted in a TALI^TM image-based cytometer (Life Technologies, Carlsbad, CA, USA). Data were expressed in percentages, divided into three groups: apoptotic cells (green fluorescence), dead cells (red or red and green fluorescence), and live cells (no fluorescence), provided by TALI® data acquisition and analysis software (Life Technologies).

For data set [9], the system named is Leishmania amazonensis promastigotes. Kind of data set: Mitochondrial membrane potential analysis (JC-1). The data set is classed as cell-based. As to conditions: 24 h incubation with IC90, JC-1. How it is done:
as §1
The JC-1 Mitochondrial Membrane Potential Assay Kit® (Cayman Chemical, Ann Arbor, MI, USA) was used to determine whether an alteration in the mitochondrial potential occurred during cell death. The parasites treated with laurequinone were incubated with the staining solution for 20 min at 26 °C in the dark. Green and red fluorescence were measured using the EnSpire Multimode Plate Reader® (PerkinElmer). The results were expressed as the percentage relative to the untreated cells of the red (J-aggregates 540/570 nm)/green ratio (J-monomers 485/535 nm). The membrane-permeant JC-1 dye is widely used in apoptosis studies to monitor mitochondrial health. […] Consequently, mitochondrial depolarization is indicated by a decrease in the red/green fluorescence intensity ratio. Sodium azide (20 mM) was added as a positive control.

Data set [10] has as its system trypanothione reductase. The arrangement: method as in PMID 21717278. Particulars: cited from earlier work.
Data set [11] relates to L. donovani axenic amastigotes. Set-up: method as in PMID 21717278. Particulars: L. donovani axenic amastigotes ref 32; cited from earlier work.
The subject of data set [12] is L. donovani promastigotes. Set-up: method as in PMID 21717278. Particulars: L. donovani promastigotes ref 32; cited from earlier work.
The mark [13] stands for this setting: Leishmania amazonensis, 72 h, 72 h total, read-out: IC50 Promastigotes.
The mark [14] stands for this setting: 72 h total, read-out: IC50 Promastigotes.

Like-named read-outs stand apart in the source and are kept apart here. Some results are limits rather than exact numbers.

In data set [1], `Cc1cc2c(cc1Br)[C@]1(C)CC[C@H](C)[C@]1(C)O2` [Aplysin (5), aplysin] came in with a 50% cytotoxic concentration (CC50) at 24 h of 1100 ± 40.6 µM. The IC50 in data set [2] (setting [13]) stood at 54.1 µM.
`Cc1ccc([C@]2(C)CC[C@@H]3C[C@@]32C)c(O)c1` [Debromolaurinterol (3), debromolaurinterol] returned a CC50 at 24 h in [1] (J774A.1 macrophages) of 70.1 ± 12.9 µM. The values for the IC50 in data set [2] (setting [14]), in data set [2] (setting [13]) and in data set [3] were 12.48 ± 0.05 µM, less than 15 µM and 24.3 ± 5.09 µM, respectively.
Compound `C=C1[C@@H](C)CC[C@@]1(C)c1cc(Br)c(C)cc1O` [Isolaurinterol (4), isolaurinterol] gave a CC50 at 24 h in [1] of 24.6 ± 2.37 µM. The concentration for half-maximal inhibition (IC50) in data set [2] (setting [14]) is 10.1 ± 1.69 µM; in data set [2] (setting [13]), less than 15 µM.
As to `CC1=CC(=O)C([C@]2(C)CC[C@@H]3C[C@@]32C)=CC1=O` [Laurequinone (1), laurequinone], in [4], the “plasma membrane permeability (SYTOX Green fluorescence)” value was “no significant green fluorescence was observed”. Moreover, the ATP levels result in [5] is listed as “no change in ATP levels”. Besides, in data set [6], the chromatin condensation result was “no chromatin condensation was observed”. In [7], the “ROS accumulation (CellROX Deep Red fluorescence)” value is “noticeable increase in visual fluorescence of CellROX Deep Red”. Besides, half-maximal cytotoxicity in [1] (J774A.1 macrophages) (CC50 at 24 h) was put at 42.1 ± 1.3 µM. The “cell population with exposed phosphatidylserine residues” value in data set [8] is listed as “approximately 30%”. The 50% inhibitory concentration (IC50) was 1.87 ± 0.17 µM in data set [2] (setting [14]); less than 2 µM in data set [2] (setting [13]); 0.43 µg/mL in [2] (Leishmania amazonensis, expressed in µg/mL, read-out: IC50); 16.7 ± 6.08 µM in [3]. Further, the “mitochondrial membrane potential (ΔΨm)” value in [9] is given as “significant decrease in mitochondrial membrane potential”.
As to `Cc1cc(O)c([C@]2(C)CC[C@@H]3C[C@@]32C)cc1Br` [Laurinterol (2), laurinterol], half-maximal cytotoxicity in data set [1] (CC50 at 24 h) was put at 80.1 ± 7.79 µM. The half-maximal inhibitory concentration (IC50) came to 34.5 ± 6.44 µM in data set [2] (setting [13]) and 34.7 ± 4.06 µM in data set [3].
As for `CCCCCCCCCCCCCCCCOP(=O)([O-])OCC[N+](C)(C)C` [Miltefosine, miltefosine, reference compound], half-maximal cytotoxicity in [1] (J774A.1 macrophages) (CC50 at 24 h) was put at 72.2 ± 3.07 µM. In addition, the concentration for half-maximal inhibition (IC50) stood at 6.48 ± 0.25 µM in [2] (setting [13]) and 3.12 ± 0.29 µM in data set [3].
Turning to `CC1=CC(=O)c2c(O)cccc2C1=O` [Plumbagin], the “mechanism of action on trypanothione reductase” value in data set [10] is recorded as “non-competitive inhibition of trypanothione reductase”. In addition, the IC50 in data set [11] is 0.21 µM; in [12], 0.34 µM.

These data come from article PMC10304164, “Laurequinone, a Lead Compound against Leishmania” (Marine Drugs, 2023).
